Experimental data reported in article PMC8670397 (Bioorganic & medicinal chemistry, 2020).
Each block holds one compound with its values, some of them ahead of it.

Columns and labels:
5-HT7 receptor = 5-HT7 receptor (Homo sapiens, UniProt P34969)
[1] = cited from earlier work
D2R = conditions: similar to aripiprazole; cited from earlier work
5-HT1A receptor = 5-HT1A receptor (Homo sapiens, UniProt P08908)
D1 receptor = D1 receptor (Homo sapiens, UniProt P21728); assay: biochemical
Chain of D1 receptor (P21728 whole entry): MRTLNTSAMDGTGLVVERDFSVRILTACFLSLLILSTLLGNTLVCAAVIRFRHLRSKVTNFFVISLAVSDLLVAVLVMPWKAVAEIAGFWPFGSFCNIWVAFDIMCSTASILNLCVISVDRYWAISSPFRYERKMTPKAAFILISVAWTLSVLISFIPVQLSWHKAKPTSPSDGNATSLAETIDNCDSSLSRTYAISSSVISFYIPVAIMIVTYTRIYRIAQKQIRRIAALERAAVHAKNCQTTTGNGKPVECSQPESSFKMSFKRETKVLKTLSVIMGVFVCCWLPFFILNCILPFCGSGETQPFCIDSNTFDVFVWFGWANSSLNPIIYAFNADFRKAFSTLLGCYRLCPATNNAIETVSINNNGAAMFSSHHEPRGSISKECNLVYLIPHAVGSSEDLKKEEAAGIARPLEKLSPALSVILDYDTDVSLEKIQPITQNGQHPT

Chain of 5-HT7 receptor (P34969 whole entry): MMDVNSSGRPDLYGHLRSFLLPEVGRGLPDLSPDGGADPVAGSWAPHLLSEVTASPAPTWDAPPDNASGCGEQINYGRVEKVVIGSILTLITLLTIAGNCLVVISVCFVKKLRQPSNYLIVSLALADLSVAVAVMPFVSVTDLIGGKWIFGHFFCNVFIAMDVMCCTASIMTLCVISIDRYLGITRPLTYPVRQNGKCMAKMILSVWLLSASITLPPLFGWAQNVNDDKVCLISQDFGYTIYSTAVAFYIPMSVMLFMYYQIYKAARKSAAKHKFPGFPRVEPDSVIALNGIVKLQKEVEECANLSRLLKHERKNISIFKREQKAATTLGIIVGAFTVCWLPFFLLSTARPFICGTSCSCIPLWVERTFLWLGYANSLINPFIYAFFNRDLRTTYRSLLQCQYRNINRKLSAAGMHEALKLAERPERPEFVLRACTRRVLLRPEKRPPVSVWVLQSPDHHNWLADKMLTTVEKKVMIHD
Chain of 5-HT1A receptor (P08908 whole entry): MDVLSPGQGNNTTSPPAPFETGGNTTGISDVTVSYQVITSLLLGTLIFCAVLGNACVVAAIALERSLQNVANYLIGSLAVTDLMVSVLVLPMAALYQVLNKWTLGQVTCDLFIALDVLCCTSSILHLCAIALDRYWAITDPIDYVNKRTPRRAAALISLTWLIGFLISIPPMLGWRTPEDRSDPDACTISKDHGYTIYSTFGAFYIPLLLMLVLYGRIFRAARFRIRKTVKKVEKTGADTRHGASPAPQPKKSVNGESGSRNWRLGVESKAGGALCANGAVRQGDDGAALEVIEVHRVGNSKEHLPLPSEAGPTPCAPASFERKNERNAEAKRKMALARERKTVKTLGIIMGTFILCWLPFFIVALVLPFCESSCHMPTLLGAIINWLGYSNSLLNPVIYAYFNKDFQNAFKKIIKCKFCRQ

mean pKi ± SEM 5-HT7 (5-HT7 receptor): 7.2 ± 0.1
SMILES: Cc1ccc(N2CCN(CCCCc3ccc(F)cc3)CC2)nc1 [Compound 9, 1-(4-(4-fluorophenyl)butyl)-4-(5-methylpyridin-2-yl)piperazine]

SMILES: Fc1ccc(CCCCN2CCN(c3ccccn3)CC2)cc1 [Compound 5, 1-(4-(4-fluorophenyl)butyl)-4-(pyridin-2-yl)piperazine]
blood brain barrier (BBB) permeability [1]: high | signaling at the D2R (D2R): activates both G-protein and β-arrestin signaling

mean pKi ± SEM 5-HT1A (5-HT1A receptor): 6.1 ± 0.1
SMILES: O=C1c2ccc(F)cc2CC1CCN1CCCN(c2ccccn2)CC1 (stereo not drawn) [Compound 14]

Ki (D1 receptor): > 2 µM | mean pKi ± SEM 5-HT7 (5-HT7 receptor): 6.63 ± 0.09
SMILES: Fc1ccc(CCCCN2CCN(c3cccnc3)CC2)cc1.O=C(O)C(=O)O [Compound 21, 1-(4-(4-fluorophenyl)butyl)-4-(pyridin-3-yl)piperazine oxalate]
